# Measurements reported in patent US20260015350A1, “AZAQUINAZOLINE PAN-KRAS INHIBITORS” (Mirati Therapeutics, Inc., priority 2022, published 2026).
# How the values were obtained:
# [1] = system: KRas-mediated phosphorylation of ERK in AsPC-1 cells; experiment: Inhibition of KRas-mediated phosphorylation of ERK (Cisbio HTRF pERK), AsPC-1 cells; format: cell-based; details: Homo sapiens; for IC50: ASPC1, AsPC-1 cells, HTRF pERK
# Summary of the method: (§1)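 6,000 cells/well; cpd 10 uM top, 3-fold x10, 0.8% DMSO final; 3 hr incubation; Min ctrl Trametinib 0.2 uM; lysis 40 min 4° C shaking; d2 + Cryptate Ab mix, 2 hr RT; HTRF read.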
# [2] = system: KRas-mediated phosphorylation of ERK in H727 cells; experiment: Inhibition of KRas-mediated phosphorylation of ERK (Cisbio HTRF pERK), H727 cells; format: cell-based; details: Homo sapiens; for IC50: NCI-H727, H727 cells, HTRF pERK
# Summary of the method: as §1
# [3] = system: KRas-mediated phosphorylation of ERK in A549 cells; experiment: Inhibition of KRas-mediated phosphorylation of ERK (Cisbio HTRF pERK), A549 cells; format: cell-based; details: Homo sapiens; for IC50: HTRF pERK; for inhibition at 0.1 µM: A549, 3 h, single point, 100 nM compound, 3 hrs
# Description: (§2) Inhibition of KRas Phosphorylation of ERK (HTRF) by Exemplary Compounds of Formula (I) Cisbio HTRF Advanced PERK Assay Catalog #64[…] […] Add 10 mL of media to stop trypsinizing. Pipette the cells into a conical bottom 50 mL centrifuge tube and centrifuge 5 min×1000 rpm. […] Re-suspend the cell pellet in media, take a cell count, and then adjust the cell density using fresh media. […] Seed 6,000 cells into cell culture plate with 50 μL media. […] Use Tecan to complete the compound addition. Compounds start from 10 uM top, 3-fold dilution, and 10 doses. The final DMSO concentration is 0.8%. Dispensed 0.2 uM Trametinib as Min control. […] Incubate cell plate for 3 hrs in the incubator. […] Dilute 1 volume of 4× lysis buffer with 3 volumes of deionized water. […] Keep lysis buffer on the ice. […] At the end of the compound treatment, flick-off the media. […] Add 35 μL of lysis buffer per well using a Multidrop Combi. Then place on a plate agitator shaking at 300 rpm at 4° C. for 40 mins. […] Make up the HTRF antibody buffer. For each assay plate, mix 50 μL of d2-conjugate antibody with 950 μL of detection buffer. Similarly, mix 50 μL of Cryptate antibody with 950 μL of detection buffer. Then mix the two diluted antibodies together. […] Dispense 3.4 μL the antibody buffer to wells of an empty assay plate. Seal the plate and centrifuge plate 30 sec×1000 rpm. […] At the end of the 4° C. lysis, centrifuge the lysate plates 3 mins×1500 rpm. […] Use the Bravo to transfer 13.6 μL of lysate from cell culture plate to assay plate. Then incubate assay plate for 2 hrs at room temperature. 8. At the end of incubation, read plate on the Envision after centrifuging plate 30 sec×1000 rpm.
# [4] = system: KRas-mediated phosphorylation of ERK in H460 cells; experiment: Inhibition of KRas-mediated phosphorylation of ERK (Cisbio HTRF pERK), H460 cells; format: cell-based; details: Homo sapiens; for IC50: NCI-H460, HTRF pERK; for inhibition at 0.1 µM: NCI-H460, 3 h, single point, 100 nM compound, 3 hrs
# Description: as §2
# [5] = system: KRas-mediated phosphorylation of ERK in HCT116 cells; experiment: Inhibition of KRas-mediated phosphorylation of ERK (Cisbio HTRF pERK), HCT116 cells; format: cell-based; details: Homo sapiens; for IC50: HCT-116, HTRF pERK; for inhibition at 0.1 µM: HCT-116, 3 h, single point, 100 nM compound, 3 hrs
# Description: as §2
# [6] = target: T1, KRas^G12D (Homo sapiens, UniProt P01116, G12D); experiment: KRas binding assay (TR-FRET tracer displacement), KRas G12D
# T1 construct: Biotinylated KRas (corresponding to amino acids 1-169, produced at Accelegan Inc.); biotin (biotinylated); purchased Accelegan Inc
# [7] = target: T2, KRas^G12R (Homo sapiens, UniProt P01116, G12R); experiment: KRas binding assay (TR-FRET tracer displacement), KRas G12R
# T2 construct: Biotinylated KRas (corresponding to amino acids 1-169, produced at Accelegan Inc.); biotin (biotinylated); purchased Accelegan Inc
# [8] = target: T3, KRas^G12V (Homo sapiens, UniProt P01116, G12V); experiment: KRas binding assay (TR-FRET tracer displacement), KRas G12V
# T3 construct: Biotinylated KRas (corresponding to amino acids 1-169, produced at Accelegan Inc.); biotin (biotinylated); purchased Accelegan Inc
# [9] = system: KRas-mediated phosphorylation of ERK in H358 cells; experiment: Inhibition of KRas-mediated phosphorylation of ERK (Cisbio HTRF pERK), H358 cells; format: cell-based; details: Homo sapiens; for inhibition at 0.1 µM: NCI-H358, 3 h, single point, 100 nM compound, 3 hrs; for IC50: NCI-H358, HTRF pERK
# Description: as §2
# T1 sequence (P01116 1-169 isoform P01116-2 G12D): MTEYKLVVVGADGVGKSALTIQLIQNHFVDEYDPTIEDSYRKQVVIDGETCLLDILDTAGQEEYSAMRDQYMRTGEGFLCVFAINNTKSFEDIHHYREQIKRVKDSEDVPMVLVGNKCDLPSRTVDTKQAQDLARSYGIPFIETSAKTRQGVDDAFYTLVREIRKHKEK
# T2 sequence (P01116 1-169 isoform P01116-2 G12R): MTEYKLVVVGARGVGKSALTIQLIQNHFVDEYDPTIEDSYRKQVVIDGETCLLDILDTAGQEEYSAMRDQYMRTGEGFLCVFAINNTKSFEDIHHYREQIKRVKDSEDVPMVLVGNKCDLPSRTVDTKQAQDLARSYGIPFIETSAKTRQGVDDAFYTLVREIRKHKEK
# T3 sequence (P01116 1-169 isoform P01116-2 G12V): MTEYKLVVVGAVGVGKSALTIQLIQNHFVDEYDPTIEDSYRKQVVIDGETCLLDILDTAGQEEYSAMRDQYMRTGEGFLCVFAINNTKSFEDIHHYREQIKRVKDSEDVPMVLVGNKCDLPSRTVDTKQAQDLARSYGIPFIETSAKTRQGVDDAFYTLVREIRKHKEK
SMILES,IC50 [1] [nM],IC50 [2] [nM],IC50 [3] [nM],IC50 [4] [nM],IC50 [5] [nM],IC50 [6] [nM],IC50 [7] [nM],IC50 [8] [nM],IC50 [9] [nM],inhibition at 0.1 µM [3] [%],inhibition at 0.1 µM [9] [%],inhibition at 0.1 µM [4] [%],inhibition at 0.1 µM [5] [%],"inhibition at 0.1 µM ([1]; ASPC1, 3 h, single point, 100 nM compound, 3 hrs, AsPC-1 cells) [%]","inhibition at 0.1 µM ([2]; NCI-H727, 3 h, single point, 100 nM compound, 3 hrs, H727 cells) [%]"
"CCc1c(F)ccc2cc(O)cc(-c3ncc4c(N5CCCC6(CCC6)C5)nc(OC[C@@]56CCCN5C[C@H](F)C6)nc4c3F)c12 [Example 549, 5-ethyl-6-fluoro-4-(8-fluoro-2-(((2R,7aS)-2-fluorotetrahydro-1H-pyrrolizin-7a(5H)-yl)methoxy)-4-(6-azaspiro[3.5]nonan-6-yl)pyrido[4,3-d]pyrimidin-7-yl)naphthalen-2-ol]",328,208,,,,7,8,4,,-6,3,,,,
"CCc1c(F)ccc2cc(O)cc(-c3ncc4c(NCC5(C)CC(=O)NC5=O)nc(OC[C@@]56CCCN5C[C@H](F)C6)nc4c3F)c12 (stereo partly drawn) [Example 566, 3-(((7-(8-ethyl-7-fluoro-3-hydroxynaphthalen-1-yl)-8-fluoro-2-(((2R,7aS)-2-fluorotetrahydro-1H-pyrrolizin-7a(5H)-yl)methoxy)pyrido[4,3-d]pyrimidin-4-yl)amino)methyl)-3-methylpyrrolidine-2,5-dione]",760,138,130,47,72,3,< 2,3,,,,,,,
"CCc1c(F)ccc2cc(O)cc(-c3ncc4c(N5CC6COCC(CO)(C5)C6(F)F)nc(OC[C@@]56CCCN5C[C@H](F)C6)nc4c3F)c12 (stereo partly drawn) [Example 645, 4-(4-(9,9-difluoro-1-(hydroxymethyl)-3-oxa-7-azabicyclo[3.3.1]nonan-7-yl)-8-fluoro-2-(((2R,7aS)-2-fluorotetrahydro-1H-pyrrolizin-7a(5H)-yl)methoxy)pyrido[4,3-d]pyrimidin-7-yl)-5-ethyl-6-fluoronaphthalen-2-ol]",4640,3720,,,,313,257,139,,,,4,6,,
"CCc1c(F)ccc2cc(O)cc(-c3ncc4c(N5CCn6cc(C(=O)N(C)C)nc6C5)nc(OC[C@@]56CCCN5C[C@H](F)C6)nc4c3F)c12 [Example 646, 7-(7-(8-ethyl-7-fluoro-3-hydroxynaphthalen-1-yl)-8-fluoro-2-(((2R,7aS)-2-fluorohexahydro-1H-pyrrolizin-7a-yl)methoxy)pyrido[4,3-d]pyrimidin-4-yl)-N,N-dimethyl-5,6,7,8-tetrahydroimidazo[1,2-a]pyrazine-2-carboxamide]",8480,> 10000,,,,,,,,-24,2,-9,-9,-12,-6
"CCc1c(F)ccc2cc(O)cc(-c3ncc4c(N5CCCn6nc(P(C)(C)=O)cc6C5)nc(OC[C@@]56CCCN5C[C@H](F)C6)nc4c3F)c12 [Example 660, (5-(7-(8-ethyl-7-fluoro-3-hydroxynaphthalen-1-yl)-8-fluoro-2-(((2R,7aS)-2-fluorohexahydro-1H-pyrrolizin-7a-yl)methoxy)pyrido[4,3-d]pyrimidin-4-yl)-5,6,7,8-tetrahydro-4H-pyrazolo[1,5-a][1,4]diazepin-2-yl)dimethylphosphine oxide]",8030,> 10000,,,,2,2,7,,-41,-20,,,,
"CCc1c(F)ccc2cc(O)cc(-c3ncc4c(N5CC6CCC(CC(=O)NC)(C6)C5)nc(OC[C@@]56CCCN5C[C@H](F)C6)nc4c3F)c12 (stereo partly drawn) [Example 914, 2-(3-(7-(8-ethyl-7-fluoro-3-hydroxynaphthalen-1-yl)-8-fluoro-2-(((2R,7aS)-2-fluorotetrahydro-1H-pyrrolizin-7a(5H)-yl)methoxy)pyrido[4,3-d]pyrimidin-4-yl)-3-azabicyclo[3.2.1]octan-1-yl)-N-methylacetamide]",2380,1040,,,,12,5,3,461,,,,,,
"C[C@@]1(O)CCCN(c2nc(OCC34CCCN3CCC4)nc3c(F)c(-c4ccc(F)c5sc(N)c(C#N)c45)ncc23)C1 [Example 916, (R)-2-amino-7-fluoro-4-(8-fluoro-4-(3-hydroxy-3-methylpiperidin-1-yl)-2-((tetrahydro-1H-pyrrolizin-7a(5H)-yl)methoxy)pyrido[4,3-d]pyrimidin-7-yl)benzo[b]thiophene-3-carbonitrile]",> 10000,> 10000,,,,78,132,120,8970,,,,,,

# The next compounds have a lower IC50 [1] than those just listed; values first:
IC50 [1] [nM],IC50 [2] [nM],IC50 [3] [nM],IC50 [4] [nM],IC50 [5] [nM],IC50 [6] [nM],IC50 [7] [nM],IC50 [8] [nM],IC50 [9] [nM],SMILES,inhibition at 0.1 µM [3] [%],inhibition at 0.1 µM [9] [%],inhibition at 0.1 µM [4] [%],inhibition at 0.1 µM [5] [%],"inhibition at 0.1 µM ([1]; ASPC1, 3 h, single point, 100 nM compound, 3 hrs, AsPC-1 cells) [%]","inhibition at 0.1 µM ([2]; NCI-H727, 3 h, single point, 100 nM compound, 3 hrs, H727 cells) [%]"
198,240,216,107,208,,,,,"CCc1c(F)ccc2cc(O)cc(-c3ncc4c(N5CCC[C@H](C)C5)nc(OC[C@@]56CCCN5C[C@H](F)C6)nc4c3F)c12 [Example 541, 5-ethyl-6-fluoro-4-(8-fluoro-2-(((2R,7aS)-2-fluorohexahydro-1H-pyrrolizin-7a-yl)methoxy)-4-((S)-3-methylpiperidin-1-yl)pyrido[4,3-d]pyrimidin-7-yl)naphthalen-2-ol]",,,,,,
12,15,,,,,,,,"CCc1c(F)ccc2cc(O)cc(-c3ncc4c(N5CCOCC6(CCO6)C5)nc(OC[C@@]56CCCN5C[C@H](F)C6)nc4c3F)c12 (stereo partly drawn) [Example 573, 5-ethyl-6-fluoro-4-(8-fluoro-2-(((2R,7aS)-2-fluorotetrahydro-1H-pyrrolizin-7a(5H)-yl)methoxy)-4-(1,6-dioxa-9-azaspiro[3.6]decan-9-yl)pyrido[4,3-d]pyrimidin-7-yl)naphthalen-2-ol]",62,94,92,53,,
6,2,1,,,,,,1,"C=C1CN2CCC[C@@]2(COc2nc(N3C[C@@H]4C[C@H](C3)[C@H](O)C4)c3cnc(-c4cc(O)cc5ccc(F)c(CC)c45)c(F)c3n2)C1 [Example 896, (1R,5R,6R)-3-(7-(8-ethyl-7-fluoro-3-hydroxynaphthalen-1-yl)-8-fluoro-2-(((S)-2-methylenetetrahydro-1H-pyrrolizin-7a(5H)-yl)methoxy)pyrido[4,3-d]pyrimidin-4-yl)-3-azabicyclo[3.2.1]octan-6-ol]",,,,,,
32,12,5,,,,,,3,"C=C1CN2CCC[C@]2(COc2nc(N3C[C@@H]4C[C@H](C3)[C@H](O)C4)c3cnc(-c4cc(O)cc5ccc(F)c(CC)c45)c(F)c3n2)C1 [Example 897, (1R,5R,6R)-3-(7-(8-ethyl-7-fluoro-3-hydroxynaphthalen-1-yl)-8-fluoro-2-(((R)-2-methylenetetrahydro-1H-pyrrolizin-7a(5H)-yl)methoxy)pyrido[4,3-d]pyrimidin-4-yl)-3-azabicyclo[3.2.1]octan-6-ol]",,,,,,
